Assay results from ChEMBL document CHEMBL1201862, “PubChem BioAssay data set” (2004).
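Grown in 96-well plates, cells were treated for 48 hours with each compound at five concentrations. Insufficient inhibition: endpoint recorded as highest concentration tested. GI50 = concentration required for 50% inhibition of growth.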 The source made the active and inactive calls. No stated cut-off is given here; in the data, active = GI50 up to about 1.1 µM and inactive = higher.

What was measured:
Assay in all cases: DTP human tumour cell line panel, 48 h
NCI-H522 = test system: NCI-H522
HCT-116 = test system: HCT-116
Malme-3M = test system: Malme-3M
OVCAR-5 = test system: OVCAR-5
RPMI-8226 = test system: RPMI-8226
MOLT-4 = test system: MOLT-4
UACC-257 = test system: UACC-257
TK-10 = test system: TK-10
SNB-19 = test system: SNB-19
ACHN = test system: ACHN
NCI-H23 = test system: NCI-H23
OVCAR-3 = test system: OVCAR-3
SK-MEL-2 = test system: SK-MEL-2
A498 = test system: A498
CAKI-1 = test system: CAKI-1
OVCAR-4 = test system: OVCAR-4

Measured: GI50

Oc1cc(-c2cccs2)nc2cc3c(cc12)OCO3
inactive: NCI-H522 2.05 µM | HCT-116 4.14 µM | Malme-3M 3.08 µM | OVCAR-5 7.98 µM | RPMI-8226 6.32 µM | MOLT-4 4.52 µM | UACC-257 3.72 µM | TK-10 21.3 µM | SNB-19 10.4 µM | ACHN 7.31 µM | NCI-H23 3.78 µM | OVCAR-3 4.63 µM | SK-MEL-2 4.99 µM | A498 3.17 µM

COc1cc(C2=NN(C)C(c3ccc([N+](=O)[O-])o3)C2)cc(OC)c1OC (centres undefined)
inactive: CAKI-1 > 100 µM | NCI-H522 43.7 µM | HCT-116 48.8 µM | Malme-3M > 100 µM | OVCAR-5 > 100 µM | RPMI-8226 1.78 µM | MOLT-4 24 µM | UACC-257 > 100 µM | TK-10 > 100 µM | OVCAR-4 91.4 µM | SNB-19 > 100 µM | ACHN > 100 µM | NCI-H23 > 100 µM | SK-MEL-2 > 100 µM | A498 > 100 µM

CC1=C(C(=O)Nc2ccc([N+](=O)[O-])cc2)C(c2ccccc2O)C(C(=O)Nc2ccc([N+](=O)[O-])cc2)=C(C)N1
inactive: CAKI-1 21.4 µM | NCI-H522 15 µM | Malme-3M 21.8 µM | OVCAR-5 16 µM | RPMI-8226 17.6 µM | MOLT-4 15.2 µM | UACC-257 21.7 µM | TK-10 44.7 µM | OVCAR-4 23.7 µM | SNB-19 37.2 µM | ACHN 13.8 µM | NCI-H23 18.6 µM | OVCAR-3 20.5 µM | SK-MEL-2 15.6 µM | A498 20.1 µM

Cc1cc(C)c(C(=O)O)c(N)c1O
inactive: CAKI-1 > 100 µM | NCI-H522 > 100 µM | HCT-116 > 100 µM | Malme-3M > 100 µM | OVCAR-5 > 100 µM | RPMI-8226 > 100 µM | MOLT-4 > 100 µM | UACC-257 > 100 µM | TK-10 > 100 µM | OVCAR-4 > 100 µM | SNB-19 > 100 µM | ACHN > 100 µM | NCI-H23 > 100 µM | OVCAR-3 > 100 µM | SK-MEL-2 > 100 µM | A498 > 100 µM

COc1cc(C(=O)N2CCc3c([nH]c4c([N+](=O)[O-])c(OC)ccc34)C2C)cc(OC)c1OC (centres undefined)
inactive: CAKI-1 > 100 µM | NCI-H522 > 100 µM | HCT-116 > 100 µM | OVCAR-5 > 100 µM | RPMI-8226 > 100 µM | MOLT-4 > 100 µM | UACC-257 > 100 µM | TK-10 > 100 µM | OVCAR-4 > 100 µM | SNB-19 > 100 µM | ACHN > 100 µM | NCI-H23 > 100 µM | OVCAR-3 > 100 µM | SK-MEL-2 > 100 µM | A498 > 100 µM

CCOC(=O)/C(C#N)=C/c1[nH]c(C)c(C)c1C
inactive: CAKI-1 > 100 µM | NCI-H522 > 100 µM | HCT-116 > 100 µM | Malme-3M > 100 µM | OVCAR-5 > 100 µM | RPMI-8226 > 100 µM | MOLT-4 > 100 µM | UACC-257 > 100 µM | TK-10 > 100 µM | OVCAR-4 > 100 µM | SNB-19 > 100 µM | NCI-H23 > 100 µM | OVCAR-3 > 100 µM | SK-MEL-2 > 100 µM | A498 > 100 µM

NNC(=O)N/N=C1\CN(c2ccc(Cl)cc2Cl)C(=O)C(=O)C1c1nc2ccccc2o1 (centres undefined)
inactive: CAKI-1 > 100 µM | NCI-H522 > 100 µM | HCT-116 > 100 µM | Malme-3M > 100 µM | OVCAR-5 > 100 µM | RPMI-8226 > 100 µM | MOLT-4 > 100 µM | UACC-257 > 100 µM | OVCAR-4 > 100 µM | SNB-19 > 100 µM | ACHN > 100 µM | NCI-H23 85.5 µM | OVCAR-3 > 100 µM | SK-MEL-2 > 100 µM | A498 > 100 µM

COc1ccc(OC)c(NC(=O)CCC/C(CC(=O)c2ccc(O)c(OC)c2)=N\Nc2nnc(C)n2N)c1
inactive: CAKI-1 > 100 µM | NCI-H522 > 100 µM | Malme-3M > 100 µM | OVCAR-5 > 100 µM | RPMI-8226 > 100 µM | MOLT-4 > 100 µM | UACC-257 > 100 µM | TK-10 > 100 µM | OVCAR-4 > 100 µM | SNB-19 > 100 µM | ACHN > 100 µM | NCI-H23 > 100 µM | OVCAR-3 > 100 µM | SK-MEL-2 > 100 µM | A498 > 100 µM

CS(=O)(=O)OCCn1cnc2nc(NC(=O)c3ccccc3)[nH]c(=O)c21
inactive: CAKI-1 > 100 µM | NCI-H522 > 100 µM | HCT-116 > 100 µM | Malme-3M > 100 µM | OVCAR-5 > 100 µM | RPMI-8226 > 100 µM | UACC-257 > 100 µM | TK-10 > 100 µM | OVCAR-4 > 100 µM | SNB-19 > 100 µM | ACHN > 100 µM | OVCAR-3 > 100 µM | SK-MEL-2 > 100 µM | A498 > 100 µM
